Our source for the GI50 values is patent publication US20260062422A1 (Halda Therapeutics OpCo, Inc., priority 2022, published 2026).

As a reminder, the GI50 is the concentration that inhibits growth by half. A high value points to lower sensitivity of the cells.

The test system of test [1] is T-Rex 293 cell line SC3 cells having increased expression of androgen receptor protein due to exposure to doxycycline. Briefly: Cellular growth inhibition, T-Rex 293 SC3 cells with doxycycline (androgen receptor induced), CellTiter-Glo. The test is classed as cell-based. The following applies: 72 h, T-Rex 293 SC3 cells with 10 ng/mL doxycycline (increased androgen receptor expression). An outline of the steps: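 Growth inhibition was compared in a T-Rex 293 clone with and without doxycycline (10 ng/mL)-driven androgen receptor overexpression. Compounds were applied for 72 h in hormone-depleted serum, and GI50 came from four-parameter curves of CellTiter-Glo signal.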
In general terms: ATP-based viability assays read luminescence as a measure of living cells.

The next test deals with T47D cells. Briefly: Cellular growth inhibition assay for T47D cells, CellTiter-Glo. The test is classed as cell-based, human. The following applies: Homo sapiens, T47D, 72 h, 72 hours treatment, CellTiter-Glo 2.0 cell viability. An outline of the steps: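 Cells are plated at 3000/well and allowed 24 h before treatment. Test compound in medium containing 0.5% DMSO is then added, with DMSO-only wells as negative control, and plates are incubated 72 h at 37 °C. ATP luminescence (CellTiter-Glo 2.0) is then fitted to four parameters to derive GI50.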

Take `Cc1sc2c(c1C)C(c1ccc(Cl)cc1)=N[C@@H](CC(=O)NCCOCCOCCOC1CCN(c3ncc(C(=O)N[C@H]4C(C)(C)[C@H](Oc5ccc(C#N)c(Cl)c5)C4(C)C)cn3)CC1)c1nnc(C)n1-2` [Compound I-7]: the GI50 (in test [1]; in the test on T47D cells) was under 500 nM in each case.

For the compound `Cc1sc2c(c1C)C(c1ccc(Cl)cc1)=N[C@@H](CC(=O)NCCOCCOCCOCCOCCOC1CCN(c3ncc(C(=O)N[C@H]4C(C)(C)[C@H](Oc5ccc(C#N)c(Cl)c5)C4(C)C)cn3)CC1)c1nnc(C)n1-2` [Compound I-8], the GI50 was under 500 nM in test [1] and 500 to 1500 nM in the test on T47D cells.

For `Cc1sc2c(c1C)C(c1ccc(Cl)cc1)=N[C@H](CC(=O)NCCOCCOCCOCCOCCOC1CCN(c3ncc(C(=O)N[C@H]4C(C)(C)[C@H](Oc5ccc(C#N)c(Cl)c5)C4(C)C)cn3)CC1)c1nnc(C)n1-2` [Compound I-14], the 50% growth inhibitory concentration (GI50) in test [1] is over 3000 nM; in the test on T47D cells it was 500 to 1500 nM.

With `Cc1sc2c(c1C)C(c1ccc(Cl)cc1)=N[C@@H](CC(=O)NCCCN1CCN(CC3CCN(c4ncc(C(=O)N[C@H]5C(C)(C)[C@H](Oc6ccc(C#N)c(Cl)c6)C5(C)C)cn4)CC3)CC1)c1nnc(C)n1-2` [Compound I-36, N-((1r,3r)-3-(3-chloro-4-cyanophenoxy)-2,2,4,4-tetramethylcyclobutyl)-2-(4-((4-(3-(2-((S)-4-(4-chlorophenyl)-2,3,9-trimethyl-6H-thieno[3,2-f][1,2,4]triazolo[4,3-a][1,4]diazepin-6-yl)acetamido)propyl)piperazin-1-yl)methyl)piperidin-1-yl)pyrimidine-5-carboxamide], the GI50 in test [1] was 500 to 1500 nM; in the test with T47D cells, under 500 nM.

For the compound `Cc1sc2c(c1C)C(c1ccc(OCCOC3CCN(c4ncc(C(=O)N[C@H]5C(C)(C)[C@H](Oc6ccc(C#N)c(Cl)c6)C5(C)C)cn4)CC3)cc1)=N[C@@H](CC(=O)O)c1nnc(C)n1-2` [Compound I-38], the concentration for 50% growth inhibition (GI50) (in test [1]; in the test on T47D cells) was 500 to 1500 nM throughout.

Take `Cc1sc2c(c1C)C(c1cccc(OCCOC3CCN(c4ncc(C(=O)N[C@H]5C(C)(C)[C@H](Oc6ccc(C#N)c(Cl)c6)C5(C)C)cn4)CC3)c1)=N[C@@H](CC(=O)O)c1nnc(C)n1-2` [Compound I-41]: the GI50 in test [1] fell in the range of 500 to 1500 nM; with T47D cells, 1500 to 3000 nM.

Turning to `CCNC(=O)C[C@@H]1N=C(c2ccc(OCCOCCOC3CCN(c4ncc(C(=O)N[C@H]5C(C)(C)[C@H](Oc6ccc(C#N)c(Cl)c6)C5(C)C)cn4)CC3)cc2)c2c(sc(C)c2C)-n2c(C)nnc21` [Compound I-44], the figures for the GI50 (in test [1]; with T47D cells) were under 500 nM and 500 to 1500 nM, respectively.

On to `CCNC(=O)C[C@@H]1N=C(c2cccc(OCCOC3CCN(c4ncc(C(=O)N[C@H]5C(C)(C)[C@H](Oc6ccc(C#N)c(Cl)c6)C5(C)C)cn4)CC3)c2)c2c(sc(C)c2C)-n2c(C)nnc21` [Compound I-46, N-((1r,3r)-3-(3-chloro-4-cyanophenoxy)-2,2,4,4-tetramethylcyclobutyl)-2-(4-(2-(3-((S)-6-(2-(ethylamino)-2-oxoethyl)-2,3,9-trimethyl-6H-thieno[3,2-f][1,2,4]triazolo[4,3-a][1,4]diazepin-4-yl)phenoxy)ethoxy)piperidin-1-yl)pyrimidine-5-carboxamide], for which the GI50 in test [1] was under 500 nM; in the test on T47D cells, 500 to 1500 nM.

Turning to `Cc1sc2c(c1C)C(c1ccc(OC3CC4(CCN(c5ncc(C(=O)N[C@H]6C(C)(C)[C@H](Oc7ccc(C#N)c(Cl)c7)C6(C)C)cn5)CC4)C3)cc1)=N[C@@H](Cc1ncco1)c1nnc(C)n1-2` [Compound I-49, N-[3-(3-chloro-4-cyano-phenoxy)-2,2,4,4-tetramethyl-cyclobutyl]-2-[2-[4-[(9S)-4,5,13-trimethyl-9-(oxazol-2-ylmethyl)-3-thia-1,8,11,12-tetrazatricyclo[8.3.0.02,6]trideca-2(6),4,7,10,12-pentaen-7-yl]phenoxy]-7-azaspiro[3.5]nonan-7-yl]pyrimidine-5-carboxamide], the concentration for 50% growth inhibition (GI50) (in test [1]; with T47D cells) was under 500 nM throughout.

On to `CCNC(=O)C[C@@H]1N=C(c2ccc(C#CCN3CCN(c4ncc(C(=O)N[C@H]5C(C)(C)[C@H](Oc6ccc(C#N)c(Cl)c6)C5(C)C)cn4)CC3)cc2)c2c(sc(C)c2C)-n2c(C)nnc21` [Compound I-54, N-[3-(3-chloro-4-cyano-phenoxy)-2,2,4,4-tetramethyl-cyclobutyl]-2-[4-[3-[4-[(9S)-9-[2-(ethylamino)-2-oxo-ethyl]-4,5,13-trimethyl-3-thia-1,8,11,12-tetrazatricyclo[8.3.0.02,6]trideca-2(6),4,7,10,12-pentaen-7-yl]phenyl]prop-2-ynyl]piperazin-1-yl]pyrimidine-5-carboxamide], for which the GI50 in test [1] is under 500 nM; in the test on T47D cells, 500 to 1500 nM.

On to `Cc1sc2c(c1C)C(c1ccc(C#CCN3CCN(c4ncc(C(=O)N[C@H]5C(C)(C)[C@H](Oc6ccc(C#N)c(Cl)c6)C5(C)C)cn4)CC3)cc1)=N[C@@H](CC(=O)OC(C)(C)C)c1nnc(C)n1-2` [Compound I-55], for which the 50% growth inhibitory concentration (GI50) in test [1] was under 500 nM; in the test on T47D cells it was over 3000 nM.

In the case of `CCNC(=O)C[C@@H]1N=C(c2ccc(OCCOC3CCN(c4ncc(C(=O)N[C@H]5C(C)(C)[C@H](Oc6ccc(C#N)c(Cl)c6)C5(C)C)cn4)CC3)cc2)c2c(sc(C)c2C)-n2c(C)nnc21` [Compound I-60, N-((1r,3r)-3-(3-chloro-4-cyanophenoxy)-2,2,4,4-tetramethylcyclobutyl)-2-(4-(2-(4-((S)-6-(2-(ethylamino)-2-oxoethyl)-2,3,9-trimethyl-6H-thieno[3,2-f][1,2,4]triazolo[4,3-a][1,4]diazepin-4-yl)phenoxy)ethoxy)piperidin-1-yl)pyrimidine-5-carboxamide], the results for the 50% growth inhibitory concentration (GI50) (in test [1]; in the test with T47D cells) were under 500 nM and 500 to 1500 nM, respectively.

In the case of `CCNC(=O)C[C@@H]1N=C(c2ccc(OC3CCN(c4ncc(C(=O)N[C@H]5C(C)(C)[C@H](Oc6ccc(C#N)c(Cl)c6)C5(C)C)cn4)CC3)cc2)c2c(sc(C)c2C)-n2c(C)nnc21` [Compound I-61], the concentration for 50% growth inhibition (GI50) was under 500 nM in test [1] and 500 to 1500 nM in the test with T47D cells.

On to `CCN(C)C(=O)C[C@@H]1N=C(c2ccc(OCCOC3CCN(c4ncc(C(=O)N[C@H]5C(C)(C)[C@H](Oc6ccc(C#N)c(Cl)c6)C5(C)C)cn4)CC3)cc2)c2c(sc(C)c2C)-n2c(C)nnc21` [Compound I-66], for which the concentration for 50% growth inhibition (GI50) is under 500 nM in test [1] and 500 to 1500 nM in the test with T47D cells.

As for `CCNC(=O)C[C@@H]1N=C(c2ccc(OCC3CN(c4ncc(C(=O)N[C@H]5C(C)(C)[C@H](Oc6ccc(C#N)c(Cl)c6)C5(C)C)cn4)C3)cc2)c2c(sc(C)c2C)-n2c(C)nnc21` [Compound I-71], the GI50 (in test [1]; with T47D cells) was under 500 nM each time.

In the case of `CCNC(=O)C[C@@H]1N=C(c2ccc(OCCOC3CCN(c4ncc(C(=O)N[C@H]5C(C)(C)[C@H](Oc6ccc(C#N)c(Cl)c6)C5(C)C)cn4)CC3)c(F)c2F)c2c(sc(C)c2C)-n2c(C)nnc21` [Compound I-73], the GI50 in test [1] was under 500 nM; with T47D cells it was 500 to 1500 nM.

Consider `CCNC(=O)C[C@@H]1N=C(c2ccc(OCCOC3CCN(c4ncc(C(=O)N[C@H]5C(C)(C)[C@H](Oc6ccc(C#N)c(Cl)c6)C5(C)C)cn4)CC3)cc2F)c2c(sc(C)c2C)-n2c(C)nnc21` [Compound I-75], for which the GI50 (in test [1]; with T47D cells) was under 500 nM throughout.

Consider `CCNC(=O)C[C@@H]1N=C(c2ccc(OCCOC3CCN(c4ncc(C(=O)N[C@H]5C(C)(C)[C@H](Oc6ccc(C#N)c(Cl)c6)C5(C)C)cn4)CC3)c(F)c2)c2c(sc(C)c2C)-n2c(C)nnc21` [Compound I-76], for which the GI50 was under 500 nM in test [1] and 500 to 1500 nM in the test on T47D cells.

In the case of `CCNC(=O)C[C@@H]1N=C(c2ccc(OCCCN(C)c3ncc(C(=O)N[C@H]4C(C)(C)[C@H](Oc5ccc(C#N)c(Cl)c5)C4(C)C)cn3)cc2)c2c(sc(C)c2C)-n2c(C)nnc21` [Compound I-81], the GI50 was under 500 nM in test [1] and 500 to 1500 nM with T47D cells.

For the compound `CCNC(=O)C[C@@H]1N=C(c2ccc(OCCCC#Cc3ncc(C(=O)N[C@H]4C(C)(C)[C@H](Oc5ccc(C#N)c(Cl)c5)C4(C)C)cn3)cc2)c2c(sc(C)c2C)-n2c(C)nnc21` [Compound I-83], the 50% growth inhibitory concentration (GI50) in test [1] was under 500 nM; in the test on T47D cells, 500 to 1500 nM.

In the case of `CCNC(=O)C[C@@H]1N=C(c2ccc(Oc3ncc(C(=O)N[C@H]4C(C)(C)[C@H](Oc5ccc(C#N)c(Cl)c5)C4(C)C)cn3)cc2)c2c(sc(C)c2C)-n2c(C)nnc21` [Compound I-84], the figures for the GI50 (in test [1]; with T47D cells) were 500 to 1500 nM and 1500 to 3000 nM, respectively.

As to `CCNC(=O)C[C@@H]1N=C(c2ccc(OC3CCN(C4CCN(c5ncc(C(=O)N[C@H]6C(C)(C)[C@H](Oc7ccc(C#N)c(Cl)c7)C6(C)C)cn5)CC4)C3)cc2)c2c(sc(C)c2C)-n2c(C)nnc21` (stereo partly shown) [Compound I-85], the concentration for 50% growth inhibition (GI50) (in test [1]; in the test on T47D cells) was under 500 nM in each case.

With `CCNC(=O)C[C@@H]1N=C(c2ccc(OCCCCc3ncc(C(=O)N[C@H]4C(C)(C)[C@H](Oc5ccc(C#N)c(Cl)c5)C4(C)C)cn3)cc2)c2c(sc(C)c2C)-n2c(C)nnc21` [Compound I-86], the 50% growth inhibitory concentration (GI50) in test [1] was under 500 nM; with T47D cells, 500 to 1500 nM.

`CCNC(=O)C[C@@H]1N=C(c2ccc(CCCC3CCN(c4ncc(C(=O)N[C@H]5C(C)(C)[C@H](Oc6ccc(C#N)c(Cl)c6)C5(C)C)cn4)CC3)cc2)c2c(sc(C)c2C)-n2c(C)nnc21` [Compound I-95]: the 50% growth inhibitory concentration (GI50) (in test [1]; in the test with T47D cells) was under 500 nM in each case.

Take `Cc1sc2c(c1C)C(c1ccc(CCCOC3CCN(c4ncc(C(=O)N[C@H]5C(C)(C)[C@H](Oc6ccc(C#N)c(Cl)c6)C5(C)C)cn4)CC3)cc1)=N[C@@H](CC(=O)NC(C)C)c1nnc(C)n1-2` [Compound I-100]: the figures for the GI50 (in test [1]; with T47D cells) were under 500 nM and 500 to 1500 nM, respectively.

On to `CCN(C)C(=O)C[C@@H]1N=C(c2ccc(CCCOC3CCN(c4ncc(C(=O)N[C@H]5C(C)(C)[C@H](Oc6ccc(C#N)c(Cl)c6)C5(C)C)cn4)CC3)cc2)c2c(sc(C)c2C)-n2c(C)nnc21` [Compound I-101], for which the results for the GI50 (in test [1]; in the test with T47D cells) were under 500 nM and 500 to 1500 nM, respectively.
